# From ChEMBL document CHEMBL1201862, “PubChem BioAssay data set” (2004)
# Calls of active or inactive are those of the source.
# Assays:
# [1] = inhibitors of HIV Env-driven cell fusion, dose response, cherry-pick (AID 652057); type: functional, cell-based
# [2] = inhibitors of clade B AD8 Env fusion, dose response, cell-based, cherry-pick (AID 652062); type: functional;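 further: luciferase signal from cell-cell fusion driven by HIV-1 clade B AD8 Env; potency is for inhibitors of fusion seen as a drop in luminescence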
# [3] = cells; type: functional
# [4] = Luminescence Cell-Based Dose Retest to Confirm Inhibitors of Cancer Stem Cells. [Related pubchem assays (depositor defined):AID2717, AID2721]; type: functional; settings: Homo sapiens
# [5] = growth suppression of PTEN-null colon cells, dose response, cell-based, HCT116 PTEN knockout (AID 1047); type: functional;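 further: HCT116 colon tumor cells with PTEN knocked out; cells exposed to compound for 60 hours before readout; potency for loss of cell viability measured by luminescence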
# [6] = biological target: T1, Heat shock factor protein 1 (Mus musculus, UniProt P38532); assay: HSF1 potentiators in luciferase reporter cells, confirmation, cell-based, NIH3T3, luminescence, dose retest (AID 435004); type: functional;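 further: stress induced by proteasome inhibitor MG132 added 30 min after compound; luciferase reporter driven by HSF1 response element in NIH3T3 cells; actives raise luminescence as potentiators of the MG132 stress response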
# T1 sequence (P38532 whole entry): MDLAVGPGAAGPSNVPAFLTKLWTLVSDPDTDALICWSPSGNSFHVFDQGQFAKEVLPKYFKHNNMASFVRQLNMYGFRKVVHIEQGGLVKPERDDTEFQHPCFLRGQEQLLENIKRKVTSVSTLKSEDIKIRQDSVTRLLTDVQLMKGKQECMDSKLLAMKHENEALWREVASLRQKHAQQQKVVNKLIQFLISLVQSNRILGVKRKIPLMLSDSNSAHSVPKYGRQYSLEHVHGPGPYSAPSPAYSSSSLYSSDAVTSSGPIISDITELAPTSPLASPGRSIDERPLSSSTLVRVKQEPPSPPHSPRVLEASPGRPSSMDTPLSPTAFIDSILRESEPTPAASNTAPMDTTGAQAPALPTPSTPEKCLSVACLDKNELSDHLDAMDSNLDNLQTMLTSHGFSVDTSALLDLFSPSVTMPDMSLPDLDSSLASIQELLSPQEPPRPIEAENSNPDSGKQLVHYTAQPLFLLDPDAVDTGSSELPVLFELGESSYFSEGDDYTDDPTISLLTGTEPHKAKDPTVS
# [7] = growth suppression of beta-catenin-knockout colon cells, dose response, cell-based, HCT116, human colon tumor (AID 1045); type: functional;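 further: HCT116 colon tumor cells with beta catenin knocked out; cells exposed to compound for 60 hours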
# [8] = biological target: T2, Replicative DNA helicase DnaB (Mycobacterium tuberculosis, UniProt P9WMR3); assay: DnaB intein splicing inhibitors, dose response, biochemical, cell-free fluorescence (AID 449749); type: functional
# T2 sequence (P9WMR3 whole entry): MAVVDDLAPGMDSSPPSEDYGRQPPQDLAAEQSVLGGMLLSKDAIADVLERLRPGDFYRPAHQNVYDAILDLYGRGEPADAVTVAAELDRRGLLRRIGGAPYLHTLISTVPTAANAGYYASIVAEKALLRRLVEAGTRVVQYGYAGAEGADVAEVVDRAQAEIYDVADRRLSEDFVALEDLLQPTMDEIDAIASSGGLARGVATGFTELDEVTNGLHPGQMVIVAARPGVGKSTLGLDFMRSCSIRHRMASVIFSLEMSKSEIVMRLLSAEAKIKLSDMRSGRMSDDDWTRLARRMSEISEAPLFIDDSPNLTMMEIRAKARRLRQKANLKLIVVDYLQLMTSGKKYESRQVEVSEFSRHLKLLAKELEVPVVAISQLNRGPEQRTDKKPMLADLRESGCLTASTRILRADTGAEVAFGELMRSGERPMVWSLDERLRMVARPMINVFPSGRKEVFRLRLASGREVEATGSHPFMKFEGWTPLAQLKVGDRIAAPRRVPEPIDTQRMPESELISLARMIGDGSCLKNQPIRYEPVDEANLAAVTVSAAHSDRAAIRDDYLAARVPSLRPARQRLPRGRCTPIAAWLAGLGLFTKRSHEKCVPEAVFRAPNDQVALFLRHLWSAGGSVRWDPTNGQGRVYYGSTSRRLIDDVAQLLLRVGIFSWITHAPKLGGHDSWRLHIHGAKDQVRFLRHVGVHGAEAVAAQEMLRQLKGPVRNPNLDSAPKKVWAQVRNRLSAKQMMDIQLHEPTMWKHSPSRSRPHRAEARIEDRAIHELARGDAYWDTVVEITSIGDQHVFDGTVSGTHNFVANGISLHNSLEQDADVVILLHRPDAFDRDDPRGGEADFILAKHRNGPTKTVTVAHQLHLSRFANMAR
# [9] = biological target: T3, Protein RecA (Mycobacterium tuberculosis, UniProt P9WHJ3); assay: Fluorescence Cell-Free Homogeneous Dose Retest to Identify Inhibitors of RecA-Intein Splicing Activity. [Related pubchem assays (depositor defined):AID2097, AID2223, AID489010, AID492950]; type: functional
# T3 sequence (P9WHJ3 whole entry): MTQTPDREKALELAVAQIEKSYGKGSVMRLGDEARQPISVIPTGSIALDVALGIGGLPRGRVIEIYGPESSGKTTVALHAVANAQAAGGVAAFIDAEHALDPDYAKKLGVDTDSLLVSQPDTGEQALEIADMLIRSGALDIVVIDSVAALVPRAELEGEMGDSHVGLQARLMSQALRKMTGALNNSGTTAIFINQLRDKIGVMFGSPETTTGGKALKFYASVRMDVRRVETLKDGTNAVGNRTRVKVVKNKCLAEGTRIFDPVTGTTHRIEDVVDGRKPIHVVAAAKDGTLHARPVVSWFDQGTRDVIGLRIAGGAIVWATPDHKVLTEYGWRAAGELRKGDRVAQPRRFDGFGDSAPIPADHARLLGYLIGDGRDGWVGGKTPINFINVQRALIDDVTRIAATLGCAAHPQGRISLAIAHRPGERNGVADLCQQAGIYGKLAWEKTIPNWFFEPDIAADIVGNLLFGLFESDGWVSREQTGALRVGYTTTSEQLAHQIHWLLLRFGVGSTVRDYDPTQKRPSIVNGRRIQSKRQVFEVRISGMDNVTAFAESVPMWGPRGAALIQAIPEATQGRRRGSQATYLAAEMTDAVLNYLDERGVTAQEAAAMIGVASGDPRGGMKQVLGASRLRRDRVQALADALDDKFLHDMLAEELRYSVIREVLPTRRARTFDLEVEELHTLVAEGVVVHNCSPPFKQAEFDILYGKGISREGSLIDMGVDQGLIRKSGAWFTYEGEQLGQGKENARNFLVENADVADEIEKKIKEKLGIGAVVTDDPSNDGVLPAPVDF
# [10] = biological target: FAD-linked sulfhydryl oxidase ALR (Homo sapiens, UniProt P55789); assay: inhibitors of human ALR sulfhydryl oxidase, dose response, biochemical, H2O2 detection, luminescence, cherry-pick (AID 493248)
# [11] = biological target: T4, Corticotropin-releasing factor receptor 2/Corticotropin-releasing factor-binding protein (Homo sapiens, UniProt P24387+Q13324); assay: activators of CRF receptor 2 with binding protein – uHTS hits, confirmation (AID 602473); type: functional; settings: read-out: EC50_Mean
# T4 sequence (Q13324 whole entry): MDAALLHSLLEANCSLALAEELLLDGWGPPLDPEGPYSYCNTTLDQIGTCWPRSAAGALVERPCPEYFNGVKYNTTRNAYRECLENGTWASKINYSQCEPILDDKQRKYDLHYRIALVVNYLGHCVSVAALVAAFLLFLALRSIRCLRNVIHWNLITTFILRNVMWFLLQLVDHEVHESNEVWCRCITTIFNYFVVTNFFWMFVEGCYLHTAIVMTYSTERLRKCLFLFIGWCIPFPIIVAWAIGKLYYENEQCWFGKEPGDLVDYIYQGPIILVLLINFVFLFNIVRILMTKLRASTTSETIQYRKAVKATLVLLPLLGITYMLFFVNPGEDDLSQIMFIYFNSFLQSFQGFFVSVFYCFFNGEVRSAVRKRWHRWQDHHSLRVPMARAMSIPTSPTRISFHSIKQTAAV
# T4 sequence (P24387 whole entry): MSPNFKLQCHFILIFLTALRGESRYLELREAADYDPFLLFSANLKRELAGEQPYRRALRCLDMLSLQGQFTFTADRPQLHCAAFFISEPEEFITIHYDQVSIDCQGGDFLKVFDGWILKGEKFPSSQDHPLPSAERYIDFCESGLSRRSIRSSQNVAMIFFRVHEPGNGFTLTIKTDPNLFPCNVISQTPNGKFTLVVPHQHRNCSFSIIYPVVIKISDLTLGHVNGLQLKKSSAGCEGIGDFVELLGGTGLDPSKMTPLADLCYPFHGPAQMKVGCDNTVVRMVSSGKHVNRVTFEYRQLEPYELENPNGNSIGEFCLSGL
# [12] = tested on: INS1; assay: beta cell apoptosis inhibitors, cytokine rescue, dose response, luminescence, retest (AID 449756); type: functional, cell-based; settings: Rattus norvegicus;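 further: cell death triggered by IL-1 beta plus TNF-alpha plus IFN-gamma mixture; protective hits raise ATP signal compared with cytokine alone wells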
# [13] = Luminescence Cell-Based Dose Confirmation HTS to Identify Inhibitors of Platelet Dense Granule Release. [Related pubchem assays: 1663 (Primary HTS), 1678 (Summary of Project)]; type: functional
# [14] = biological target: Luciferin 4-monooxygenase (Photinus pyralis, UniProt P08659); assay: firefly luciferase enzyme inhibitors, dose response, biochemical, luminescence (AID 1891)
# [15] = HEp-2 cell cytotoxicity, dose response, cytotoxicity control for RSV inhibitor project, HTS (AID 2410); type: functional; settings: human respiratory syncytial virus
# [16] = tested on: Streptococcus sp. 'group A'; assay: growth inhibition of control SK(-) GAS strain, dose response, counter-screen for streptokinase expression inhibitor project, luminescence, kanamycin, BacTiterGlo, confirmation (AID 1900); type: functional, organism-based
# [17] = Luminescence Cell-Based Dose Response HTS to Identify Inhibitors of 5'UTR Stem-Loop Driven Prion Protein mRNA Translation in H4 Neuroglioblastoma Cells. [Related pubchem assays: 1827 (Project Summary), 1813 (Primary HTS)]; type: functional
# [18] = tested on: Streptococcus; assay: Group A Streptococcus viability loss, dose response, counter-screen for streptokinase expression inhibitor project, luminescence, BacTiterGlo (AID 1915); type: functional, organism-based;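 further: potency for reduction of bacterial viability or growth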
# [19] = inhibitors of firefly luciferase expression or activity, dose response, H4 neuroglioma cells, luminescence (AID 1990); type: functional, cell-based
# [20] = inhibitors of SNCA 5'UTR-driven reporter translation, confirmation, H4 neuroglioma cells, luminescence (AID 1988); type: functional, cell-based
# [21] = biological target: T1, Heat shock factor protein 1; assay: inhibition of MG132-induced HSE-luciferase signal, confirmation, cell-based, NIH3T3, luminescence, dose retest (AID 2382); type: functional;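 further: NIH3T3 fibroblasts with HSF1-driven luciferase reporter stressed by proteasome inhibitor MG132; luminescence from HSF1-driven luciferase expression after 8 hours of MG132 stress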
# FAD-linked sulfhydryl oxidase ALR, sequence (P55789 whole entry): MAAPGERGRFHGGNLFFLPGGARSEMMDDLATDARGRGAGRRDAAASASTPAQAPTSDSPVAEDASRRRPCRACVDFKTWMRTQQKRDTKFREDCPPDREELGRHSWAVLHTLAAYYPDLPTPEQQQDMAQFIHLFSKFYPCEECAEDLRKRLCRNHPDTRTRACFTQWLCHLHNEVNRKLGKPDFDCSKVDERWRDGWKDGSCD
# Luciferin 4-monooxygenase, sequence (P08659 whole entry): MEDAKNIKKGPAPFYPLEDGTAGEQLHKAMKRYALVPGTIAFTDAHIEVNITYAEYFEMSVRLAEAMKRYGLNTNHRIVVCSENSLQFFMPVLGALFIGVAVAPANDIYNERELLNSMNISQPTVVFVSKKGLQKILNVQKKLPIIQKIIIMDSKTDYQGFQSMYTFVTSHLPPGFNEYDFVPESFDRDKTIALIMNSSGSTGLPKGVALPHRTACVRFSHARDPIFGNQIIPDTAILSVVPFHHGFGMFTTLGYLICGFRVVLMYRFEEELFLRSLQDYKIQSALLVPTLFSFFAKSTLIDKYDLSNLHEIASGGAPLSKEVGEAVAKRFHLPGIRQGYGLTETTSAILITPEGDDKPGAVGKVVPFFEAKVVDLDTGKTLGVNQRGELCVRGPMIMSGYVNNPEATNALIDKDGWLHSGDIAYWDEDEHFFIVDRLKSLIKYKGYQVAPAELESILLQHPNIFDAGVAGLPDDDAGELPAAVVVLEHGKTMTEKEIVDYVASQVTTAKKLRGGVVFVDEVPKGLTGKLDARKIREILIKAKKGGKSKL
structure (smiles),measurement,setting,value
COc1ccc(S(=O)(=O)N(C)C[C@@H]2Oc3ccc(N(C)C)cc3C(=O)N([C@H](C)CO)C[C@@H]2C)cc1,AC50,[1],12 µM (active)
same,AC50,[2],26.4 µM (active)
C[C@H](CO)N1C[C@H](C)[C@H](CN(C)S(=O)(=O)c2ccccc2)Oc2ccc(NS(=O)(=O)c3ccccc3)cc2CC1=O,AC50,[1],8.48 µM (active)
same,AC50,[2],13.6 µM (active)
COc1cc(NC(=O)C/C(C)=N/NC(=O)c2cccs2)c(OC)cc1Cl,IC50,[3],2.79 µM (active)
CC(C)Oc1cccc(C(=O)NC(=S)Nc2ccccc2N2CCOCC2)c1,AC50,[4],4.53 µM (active)
CCn1c2ccccc2c2cc(NC(=O)CSc3nnc(-c4cccc(OC)c4)n3N)ccc21,EC50,[5],32.1 µM (active)
same,EC50,[6],33.9 µM (active)
same,EC50,[7],31.5 µM (active)
Cc1ccc(C(C[N+](=O)[O-])n2nc(C)cc2C)cc1 (stereo unspecified),AC50,[4],13 µM (active)
CSc1nc(=S)n(-c2ccc([N+](=O)[O-])cc2)c(C)c1C(C)=O,AC50,[8],40.3 µM (active)
same,EC50,[9],12.1 µM (active)
CCCc1n[nH]c(O)c1C(c1ccc(Br)cc1)C(C#N)C#N (stereo unspecified),AC50,[8],5.5 µM (active)
same,EC50,[9],4.06 µM (active)
same,AC50,[10],2.24 µM (active)
COc1cccc(/C(O)=C/c2nc3ccc(C(=O)NCCc4ccc(Cl)cc4)cc3nc2O)c1,EC50,[5],4.26 µM (active)
same,EC50,[7],4.16 µM (active)
same,EC50,[11],5.02 µM (active)
O=C(Nc1ccc(Cl)c(Cl)c1)N1CCSC1c1ccco1 (stereo unspecified),AC50,[12],11.8 µM (active)
O=C(Nc1ccc(Cl)c(Cl)c1)Nc1ccccc1C(=O)O,EC50,[13],8.59 µM (active)
same,AC50,[10],0.182 µM (active)
same,EC50,[14],0.12 µM (active)
C=C(C)COc1ccc(-c2nc(N)ncc2-c2ccc(Br)cc2)c(O)c1,CC50,[15],15.7 µM (active)
same,AC50,[4],5.37 µM (active)
C=C(C)CN=C(S)NNC(=O)CCn1c2ccc(Cl)cc2c2cc(Cl)ccc21,EC50,[16],2.84 µM (active)
same,EC50,[17],> 120 µM (not active)
same,EC50,[18],8.01 µM (active)
same,EC50,[19],> 120 µM (not active)
same,EC50,[20],> 120 µM (not active)
same,AC50,[4],1.44 µM (active)
C[C@@H]1CN([C@H](C)CO)C(=O)c2cccc(NS(=O)(=O)c3ccccc3)c2O[C@@H]1CN(C)Cc1ccc(Cl)c(Cl)c1,AC50,[1],< 0.26 µM (active)
same,AC50,[2],1.67 µM (active)
c1ccc(CN2CCC(Nc3nc(-c4cccs4)nc4ccccc34)CC2)cc1,AC50,[4],4.2 µM (active)
Cc1ccc2[nH]c3nc(N/N=C/c4cccc(O)c4)nnc3c2c1,AC50,[4],< 0.16 µM (active)
Cc1ccc(S(=O)(=O)N(C)C[C@@H]2Oc3ccc(NC(=O)Nc4ccc5c(c4)OCO5)cc3C(=O)N([C@H](C)CO)C[C@@H]2C)cc1,AC50,[1],2.48 µM (active)
same,AC50,[2],5.55 µM (active)
O=C(NNC1=Nc2cccc3cccc1c23)c1ccccc1Br,EC50,[5],21.9 µM (active)
same,EC50,[7],20.8 µM (active)
COc1cccc(C(=O)Nc2ccc(Cl)c(C(F)(F)F)c2)c1,EC50,[5],43.3 µM (active)
same,EC50,[7],60.1 µM (active)
CCCCNCc1cc(Br)c(OCc2cccs2)c(OC)c1,EC50,[5],17 µM (active)
same,EC50,[7],16.6 µM (active)
Cc1ccc(Sc2c(C)[nH]n(C(C)(C)C)c2=O)cc1,AC50,[8],30 µM (active)
same,EC50,[9],1.47 µM (active)
CC(C)c1n[nH]c2c1C(c1cccnc1)C(C#N)=C(N)O2 (stereo unspecified),AC50,[8],1.78 µM (active)
same,EC50,[9],1.81 µM (inconclusive)
O=C(COC(=O)CCc1c[nH]c2ccccc12)NCc1ccc2c(c1)OCO2,IC50,[3],11.3 µM (active)
CCCN1[C@H](C(=O)N[C@@H](C)c2ccccc2)[C@@H](CO)[C@@H]2Cn3c(ccc(-c4cccc(F)c4)c3=O)[C@@H]21,AC50,[1],41.5 µM (active)
CCOc1ccc(N=Nc2c(N)n[nH]c2O)cc1,EC50,[21],> 195 µM (not active)
same,AC50,[8],15.3 µM (active)
same,EC50,[9],3.85 µM (active)
